Results on four compounds are retold here after patent US9259389B2, “Pharmaceutical oral dosage form containing a synthetic oligosaccharide” (ENDOTIS PHARMA, priority 2009, dated 2016).

The data set is described as follows: Bioavailability after Direct Intra-Duodenal Infusion (DIDI) administration in rat. It is filed as in vivo. The settings on record: for bioavailability: female, Wistar Han, plasma, other: direct intra-duodenal infusion (DIDI), read-out: DIDI (bioavailability F after Direct Intra-Duodenal Infusion). The text has this: Pharmacokinetic Study after Direct Intra-Duodenal Injection:
Direct Intra-Duodenal Infusion (DIDI) has been performed in fasted female Wistar Han rats (175-250 g) to determine the ability of oligosaccharide compounds, in a formulation according to the present invention, to cross the intestinal barrier.
Animals were anesthetized with isoflurane gas in a closed induction chamber and held under anesthesia (3% isoflurane and 2.4 l/min rate) until sacrifice at the end of the experiment. After shaving, a laparotomy was performed and the duodenum exposed. A small pore was created upper the bile duct into the duodenum using a high temperature cautery fine tip. A flexible catheter was inserted into the duodenal lumen through the hole and the upper part of the duodenum was closed and the catheter immobilized by clipping with a forceps. A syringe containing the formulation according to the present invention and diluted as indicated below was placed onto the flexible catheter and the syringe's plunger was slowly depressed releasing the material into the duodenum. Immediately after, a 0.9% NaCl solution was injected (50 μl) to ensure complete compound administration. At this step, peritoneal cavity and skin of the rats were closed using silk suture.
The dose of the oligosaccharide compound according to the present invention to be administrated is 2 mg/kg of body weight or 4 mg/kg of body weight. Therefore, each rat received the quantity of the formulation corresponding to this dosage (i.e. for the dose of 2 mg/kg of body weight, 0.4 mg per rat of 200 g, corresponding to 40 mg of formulation for a formulation containing 1% by weight of the oligosaccharide), diluted extemporaneously at ambient temperature in water for injection with a total volume of administration of 500 μl.
Sometimes, it can be advantageous to first heat the formulation to 37° C. for 15 min under agitation to optimize dilution of the formulation.
Blood samples were collected over a certain period of time (in general 0.25; 0.5; 1; 1.5; 2; 2.5 h) and plasma analyzed as described below.
Quantification of the Compounds in Plasma:
Plasma concentration of the synthetic oligosaccharide (μg compound/mL plasma) was determined using a bioassay based on the factor Xa inhibitory activity of the compounds in the presence of antithrombin (AT). First, AT was added in excess to the plasma sample, allowing 1/1 oligosaccharide/AT complex formation. Factor Xa was then added in excess, and remaining active factor Xa was determined by spectrophotometry at 405 nm using a chromogenic reagent as a substrate. A dose-response curve was established for each compound to be quantified in rat plasma.
Pharmacokinetic Study after Intravenous Administration: […]

Where two headings read alike, the source gives them in different places.

The bioavailability is dose-corrected exposure relative to a reference, in per cent. In the case of `CCCCOC1C(COS(=O)(=O)[O-])OC(OC2C(OC)C(OC)C(OC3C(COS(=O)(=O)[O-])OC(OC4COC(OC5C(COS(=O)(=O)[O-])OC(OC)C(OS(=O)(=O)[O-])C5O)[C@H](OCC(=O)[O-])C4OC)C(OS(=O)(=O)[O-])C3OS(=O)(=O)[O-])OC2(CC)C(=O)[O-])C(N)C1OCCCC.[Na+].[Na+].[Na+].[Na+].[Na+].[Na+].[Na+].[Na+]` (stereo partly shown) [Sodium salt of 122 without formulation], the bioavailability (active: sodium salt of compound 122, AUC0-2 DIDI vs intravenous) worked out at 2.5 ± 1%.
`CO[C@H]1O[C@H](COS(=O)(=O)O)[C@@H](O[C@@H]2O[C@@H](C(=O)O)[C@@H](O[C@H]3O[C@H](COS(=O)(=O)O)[C@@H](O[C@@H]4O[C@H](C(=O)O)[C@@H](O[C@H]5O[C@H](COS(=O)(=O)O)[C@@H](O)[C@H](O)[C@H]5NS(=O)(=O)O)[C@H](O)[C@H]4O)[C@H](OS(=O)(=O)O)[C@H]3NS(=O)(=O)O)[C@H](O)[C@H]2OS(=O)(=O)O)[C@H](O)[C@H]1NS(=O)(=O)O` [Fondaparinux, reference compound]: the bioavailability (active: sodium fondaparinux, dose delivered 2 mg/kg, AUC0-2 DIDI vs intravenous) was determined as 3%.
As to `CCC1(C(=O)[O-])OC(OC2C(COS(=O)(=O)[O-])OC(OC3COC(OC4C(COS(=O)(=O)[O-])OC(OC)C(OS(=O)(=O)[O-])C4OC)[C@H](OCC(=O)[O-])C3OC)C(OS(=O)(=O)[O-])C2OS(=O)(=O)[O-])C(OC)C(OC)C1OC1OC(COS(=O)(=O)[O-])C(OCCOCCOCCOCCN)C(OC)C1OC.[Na+].[Na+].[Na+].[Na+].[Na+].[Na+].[Na+].[Na+]` (stereo partly shown) [Sodium salt of 147 without formulation], for the setting “active: sodium salt of compound 147, AUC0-2 DIDI vs intravenous”, the bioavailability was determined as 1 ± 10%.
As for Fondaparinux Benzathine, the “DIDI (bioavailability F after Direct Intra-Duodenal Infusion)” value (active: Fondaparinux Benzathine, 2 mg/kg, AUC0-2 DIDI vs intravenous) is recorded as 2 ± 1%.
